{"source": "paper PMC7817177", "about": "(eLife, 2021)", "molecules": {"B1": {"name": "GST-tagged binder of ARL2 (BART), full length (natural protein, human, UniProt Q9Y2Y0 1-163, looked up)", "chain": "MDALEGESFALSFSSASDAEFDAVVGYLEDIIMDDEFQLLQRNFMDKYYLEFEDTEENKLIYTPIFNEYISLVEKYIEEQLLQRIPEFNMAAFTTTLQHHKDEVAGDIFDMLLTFTDFLAFKEMFLDYRAEKEGRGLDLSSGLVVTSLCKSSSLPASQNNLRH"}}, "key": {"[1]": {"biological_target": "T1, ARL3 (Homo sapiens, UniProt P36405)", "T1 construct": "full-length, C-terminal His6 tag (untagged thrombin-cut version in some assays), E. coli BL21-CodonPlus(DE3)-RIL", "T1 sequence (P36405 2-182)": "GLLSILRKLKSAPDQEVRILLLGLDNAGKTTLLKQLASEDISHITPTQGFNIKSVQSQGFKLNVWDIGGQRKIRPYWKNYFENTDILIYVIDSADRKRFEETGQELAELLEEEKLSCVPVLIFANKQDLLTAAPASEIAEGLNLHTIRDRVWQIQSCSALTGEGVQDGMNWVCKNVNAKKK", "experiment": "fluorescence polarisation, competition with mantGDP", "format": "binding", "details": "2 uM mantGDP, 2 uM ARL3-GDP, 2 uM ARL13B 18-278 (GEF) present, pH 7.5, 5 mM MgCl2, room temperature, competitive"}, "[2]": {"biological_target": "T2, ARL3^ΔN (ARL3^17-182) (Homo sapiens, UniProt P36405)", "T2 construct": "residues 17-182 (N-terminal helix removed), C-terminal His6 tag, E. coli", "T2 sequence (P36405 17-182, stated change not applied)": "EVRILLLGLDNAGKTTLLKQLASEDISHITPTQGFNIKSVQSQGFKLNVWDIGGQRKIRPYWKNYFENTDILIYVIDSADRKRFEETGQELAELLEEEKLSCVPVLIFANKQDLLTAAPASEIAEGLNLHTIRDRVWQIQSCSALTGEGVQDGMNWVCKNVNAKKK", "experiment": "fluorescence polarisation nucleotide exchange, displacement of mantGDP", "format": "binding", "details": "150 uM GppNHp with ARL13B 18-278 (GEF); competitive"}, "[3]": {"biological_target": "ADP-ribosylation factor-like 3 (ARL3), full length (human, UniProt P36405 1-182)", "sequence (P36405 whole entry)": "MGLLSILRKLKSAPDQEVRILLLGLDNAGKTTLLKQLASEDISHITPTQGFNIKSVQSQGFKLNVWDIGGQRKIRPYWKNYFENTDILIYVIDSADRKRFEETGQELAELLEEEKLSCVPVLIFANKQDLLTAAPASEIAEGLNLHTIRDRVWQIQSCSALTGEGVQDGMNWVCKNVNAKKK", "experiment": "cell-based or functional assay"}}}
{"molecule": "Nc1nc2c(ncn2[C@@H]2O[C@H](COP(=O)(O)OP(=O)(O)O)[C@@H](O)[C@H]2O)c(=O)[nH]1", "note": "[GDP]", "values": [{"measurement": "% mantGDP binding relative to no unlabelled nucleotide", "setting": "[1]; 40 uM unlabelled GDP", "result": "excess unlabelled GDP was able to compete with mantGDP"}]}
{"molecule": "Nc1nc2c(ncn2[C@@H]2O[C@H](COP(=O)(O)OP(=O)(O)OP(=O)(O)O)[C@@H](O)[C@H]2O)c(=O)[nH]1", "note": "[GTP]", "values": [{"measurement": "% mantGDP binding relative to no unlabelled nucleotide", "setting": "[1]; 40 uM unlabelled GTP", "result": 53, "unit": "%"}]}
{"molecule": "Nc1nc2c(ncn2[C@@H]2O[C@H](COP(=O)(O)OP(=O)(O)NP(=O)(O)O)[C@@H](O)[C@H]2O)c(=O)[nH]1", "note": "[GppNHp]", "values": [{"measurement": "% mantGDP binding relative to no unlabelled nucleotide", "setting": "[1]; 40 uM unlabelled GppNHp", "result": 83.7, "unit": "%"}, {"measurement": "fluorescence polarisation nucleotide exchange, displacement of mantGDP", "setting": "[2]", "result": "ARL3^ΔN undergoes significant nucleotide exchange upon the addition of ARL13B"}]}
{"molecule": "B1", "values": [{"measurement": "acceleration by 20 µM BART of the exchange of 2 µM ARL3mantGDP with 150 µM unlabelled GDP and 10 µM ARL13B^18-278 (fluorescence polarisation)", "setting": "[3]", "result": "~70", "unit": "fold"}]}
